One experiment has as its target T1, Human HSP90 alpha (Homo sapiens, UniProt P07900).
T1 construct: His tag (inferred from purification on a HisPrep FF column); made in house; host or cells: E. coli BL21 codon plus (Stratagene)
The experiment can be described thus: Assay for the activity of inhibiting HSP90 enzyme (ATPase, malachite green). In kind it is biochemical. The following applies: purified human HSP90 alpha, 1 mM ATP added, 37° C. for two hours, OD655. How it is done: Introduction of pETHuHSP90a into E. coli (BL21 codon plus; Stratagene) was followed by O/N incubation in the presence of 0.1 mM IPTG, and the collected E. coli cells were disrupted by ultrasonication in a Lysis buffer (50 mM Tris-HCl (pH8.0), 10 mM MgCl2, 0.1% Triton X-100, Protease inhibitor cocktail tablets (Roche Diagnostics)). The cell lysate solution was centrifuged (10,000 rpm×30 minutes), and the supernatant obtained after centrifugation was used as a crude extract. The crude extract was fractionated using HisPrep FF column and HiTrap Q column (Amersham) to prepare a purified enzyme solution.
An enzyme solution for assays was prepared by dilution of the purified enzyme solution using an assay buffer (50 mM Tris HCl pH7.6, 20 mM KCl, 5 mM MgCl2).
10 μL each of various concentrations of the test substances (10% DMSO solution) was added to each well, and for the positive control wells, 10 μL of 10% DMSO was added. 10 μL of 10% DMSO was also added to the negative control well.
10 μL of 1 mM ATP was added to all of the wells, and the reaction was carried out at 37° C. for two hours.

The subject of the next experiment is HCT116 cells. The experiment can be described thus: Measurement of cell growth inhibition (Cell Counting Kit-8, four days).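 Further: cells exposed to a range of test concentrations at 37 °C in 5% CO2 for four days, then growth read as absorbance with Cell Counting Kit-8.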 The following applies: Homo sapiens, HCT-116, 96 h, read-out: Cell growth-inhibiting activity (IC50, μM) Colon cancer HCT116, HCT116 colon cancer cell line, four days culture. (In general: Tetrazolium assays rely on reduction of a dye to a coloured formazan, in cell work by metabolically active cells.)

Setting [1] is: read-out: Enzyme-inhibiting activity (IC50, μM) Human HSP90α.

SMILES strings stand for the structures. Where “and” joins values, the source holds several entries; their conditions need not be identical. Equal entries are not always repeated. Where two headings read alike, the source gives them in different places.

Description for HCT116 cells: Cells were maintained under conditions recommended by the provider of each cell line. Cells suspended in a medium were added to solutions containing various concentrations of the test substance, and the cells were cultured at 37° C. in a 5% CO2 incubator. Four days later, Cell Counting Kit-8 was added, and absorbance measurements were taken following the protocol included in the kit.

As to `Cc1cc(C)c2cc1C(=O)NCCCN(CCN1CCOCC1)C(=O)CCSc1cc-2nc(N)n1` [Compound 36, 4-amino-18,20-dimethyl-11-(2-morpholin-4-ylethyl)-7-thia-3,5,11,15-tetraazatricyclo[15.3.1.1^2,6]docosa-1(20),2,4,6(22),17(21),18-hexaene-10,16-dione], the figures for the IC50 at Human HSP90 alpha (setting [1]) and in the experiment with HCT116 cells were 0.7 µM and 1.8 µM, respectively.
On the same counts, the results for `Cc1cc(C)c2cc1C(=O)NCCC[C@@H](C(=O)NCCO)NC(=O)CCSc1cc-2nc(N)n1` [Compound 46, (S)-4-amino-19,21-dimethyl-10,17-dioxo-7-thia-3,5,11,16-tetraazatricyclo[16.3.1.1^2,6]tricosa-1(21),2,4,6(23),18(22),19-hexaene-12-carboxylic acid (2-hydroxyethyl)amide] are 1.1 µM and greater than 10 µM.
Consider `Cc1cc(C)c2cc1C(=O)NCCC[C@@H](C(=O)NCC(O)CO)NC(=O)CCSc1cc-2nc(N)n1` (stereo partly drawn) [Compound 48, (S)-4-amino-19,21-dimethyl-10,17-dioxo-7-thia-3,5,11,16-tetraazatricyclo[16.3.1.1^2,6]tricosa-1(21),2,4,6(23),18(22),19-hexaene-12-carboxylic acid (2,3-dihydroxypropyl) amide], for which the IC50 was 0.8 µM on Human HSP90 alpha (setting [1]) and greater than 10 µM with HCT116 cells.
On to `COC(=O)[C@@H]1CCNC(=O)CCSc2cc(nc(N)n2)-c2cc(c(C)cc2C)C(=O)N1` [Compound 63, (S)-4-amino-18,20-dimethyl-10,16-dioxo-7-thia-3,5,11,15-tetraazatricyclo[15.3.1.1^2,6]docosa-1(20),2(22),3,5,17(21),18-hexaene-14-carboxylic acid methyl ester], for which the figures for the IC50 at Human HSP90 alpha (setting [1]) and in the experiment on HCT116 cells were 2.8 µM and 0.2 µM, respectively.
As to `CNC(=O)[C@@H]1CCNC(=O)CCSc2cc(nc(N)n2)-c2cc(c(C)cc2C)C(=O)N1` [Compound 65, (S)-4-amino-18,20-dimethyl-10,16-dioxo-7-thia-3,5,11,15-tetraazatricyclo[15.3.1.1^2,6]docosa-1(20),2(22),3,5,17(21),18-hexaene-14-carboxylic acid methylamide], the results for the IC50 on Human HSP90 alpha (setting [1]) and in the experiment on HCT116 cells were 2.8 µM and 9 µM, respectively.
Take `COCCNC(=O)[C@@H]1CCNC(=O)CCSc2cc(nc(N)n2)-c2cc(c(C)cc2C)C(=O)N1` [Compound 66, (S)-4-amino-18,20-dimethyl-10,16-dioxo-7-thia-3,5,11,15-tetraazatricyclo[15.3.1.1^2,6]docosa-1(20),2(22),3,5,17(21),18-hexaene-14-carboxylic acid (2-methoxyethyl) amide]: the concentration for half-maximal inhibition (IC50) on Human HSP90 alpha (setting [1]) is 2.5 µM; with HCT116 cells it was greater than 10 µM.
Taken in the same sequence, the figures for `Cc1cc(C)c2cc1C(=O)N[C@H](C(=O)N(C)C)CCNC(=O)CCSc1cc-2nc(N)n1` [Compound 67, (S)-4-amino-18,20-dimethyl-10,16-dioxo-7-thia-3,5,11,15-tetraazatricyclo[15.3.1.1^2,6]docosa-1(20),2(22),3,5,17(21),18-hexaene-14-carboxylic acid dimethylamide] were 5.5 µM and greater than 5 µM.
On the same counts, the results for `Cc1cc(C)c2cc1C(=O)N[C@H](CO)CCNC(=O)CCSc1cc-2nc(N)n1` [Compound 68, (S)-4-amino-14-hydroxymethyl-18,20-dimethyl-7-thia-3,5,11,15-tetraazatricyclo[15.3.1.1^2,6]docosa-1(20),2(22),3,5,17(21),18-hexaene-10,16-dione] are 1.7 µM and 7.1 µM.
For `COC(=O)[C@H]1CCNC(=O)c2cc(c(C)cc2C)-c2cc(nc(N)n2)SCCC(=O)N1` [Compound 69, (R)-4-amino-18,20-dimethyl-10,16-dioxo-7-thia-3,5,11,15-tetraazatricyclo[15.3.1.1^2,6]docosa-1(20),2,4,6(22),17(21),18-hexaene-12-carboxylic acid methyl ester], the half-maximal inhibitory concentration (IC50) on Human HSP90 alpha (setting [1]) is 2.9 µM; with HCT116 cells, 3.2 µM.
With `Cc1cc(C)c2cc1C(=O)NCC[C@@H](C(=O)N1CCOCC1)NC(=O)CCSc1cc-2nc(N)n1` [Compound 70, (S)-4-amino-18,20-dimethyl-12-(morpholine-4-carbonyl)-7-thia-3,5,11,15-tetraazatricyclo[15.3.1.1^2,6]docosa-1(20),2,4,6(22),17(21),18-hexaene-10,16-dione], the results for the 50% inhibitory concentration (IC50) at Human HSP90 alpha (setting [1]) and with HCT116 cells were 2.7 µM and greater than 10 µM, respectively.
In the case of `Cc1cc(C)c2cc1C(=O)NCC[C@@H](CN1CCOCC1)NC(=O)CCSc1cc-2nc(N)n1` [Compound 71, (S)-4-amino-18,20-dimethyl-12-morpholin-4-ylmethyl-7-thia-3,5,11,15-tetraazatricyclo[15.3.1.1^2,6]docosa-1(20),2(22),3,5,17(21),18-hexaene-10,16-dione], the IC50 was 2.9 µM at Human HSP90 alpha (setting [1]) and 9.1 µM in the experiment with HCT116 cells.
As for `Cc1cc(C)c2cc1C(=O)NCC1(CNC(=O)CCSc3cc-2nc(N)n3)COC1` [Compound 72], the half-inhibitory concentration (IC50) came out at 2.2 µM at Human HSP90 alpha (setting [1]) and 1 µM in the experiment with HCT116 cells.
Taken in the same sequence, the figures for `Cc1cc(C)c2cc1C(=O)NCCC(N)C(=O)NCCSc1cc-2nc(N)n1` (stereo not shown) [Compound 73, 4,12-diamino-18,20-dimethyl-7-thia-3,5,10,15-tetraazatricyclo[15.3.1.1^2,6]docosa-1(20),2(22),3,5,17(21),18-hexaene-11,16-dione] were 2.3 µM and 0.5 µM.
`CC(=O)NC1CCNC(=O)c2cc(c(C)cc2C)-c2cc(nc(N)n2)SCCNC1=O` (stereo not shown) [Compound 74, N-(4-amino-18,20-dimethyl-10,16-dioxo-7-thia-3,5,10,15-tetraazatricyclo[15.3.1.1^2,6]docosa-1(20),2(22),3,5,17(21),18-hexaen-12-yl)acetamide]: the IC50 was 2.3 µM at Human HSP90 alpha (setting [1]) and 5.7 µM in the experiment on HCT116 cells.
Take `Cc1cc(C)c2cc1C(=O)NCCC(NC(=O)C(F)(F)F)C(=O)NCCSc1cc-2nc(N)n1` (stereo not shown) [Compound 75, N-(4-amino-18,20-dimethyl-11,16-dioxo-7-thia-3,5,10,15-tetraazatricyclo[15.3.1.1^2,6]docosa-1(20),2(22),3,5,17(21),18-hexaen-12-yl)-2,2,2-trifluoroacetamide]: the IC50 was 1.9 µM at Human HSP90 alpha (setting [1]) and 0.5 µM with HCT116 cells.
In the case of `Cc1cc(C)c2cc1C(=O)NCCC(NC(=O)[C@H](N)C(C)C)C(=O)NCCSc1cc-2nc(N)n1` (stereo partly shown) [Compound 76], the 50% inhibitory concentration (IC50) at Human HSP90 alpha (setting [1]) is 4.3 µM and 6.2 µM; in the experiment with HCT116 cells it was 5 µM.
Turning to `Cc1cc(C)c2cc1C(=O)NCCC(NC(=O)[C@H](N)Cc1ccc(O)cc1)C(=O)NCCSc1cc-2nc(N)n1` (stereo partly shown) [Compound 77], the concentration for half-maximal inhibition (IC50) against Human HSP90 alpha (Enzyme-inhibiting activity (IC50, μM) Human HSP90α) is 5 µM and 3.4 µM; in the experiment on HCT116 cells it was 6.5 µM.
As to `Cc1cc(C)c2cc1C(=O)NCCC(N(C)C)C(=O)NCCSc1cc-2nc(N)n1` (stereo not shown) [Compound 78, 4-amino-12-dimethylamino-18,20-dimethyl-7-thia-3,5,10,15-tetraazatricyclo[15.3.1.1^2,6]docosa-1(20),2(22),3,5,17(21),18-hexaene-11,16-dione], the IC50 on Human HSP90 alpha (setting [1]) is 2.8 µM; in the experiment on HCT116 cells it was 0.5 µM.
As to `Cc1cc(C)c2cc1C(=O)NCCCC(=O)N(CCO)CCSc1cc-2nc(N)n1` [Compound 79, 4-amino-10-(2-hydroxyethyl)-18,20-dimethyl-7-thia-3,5,10,15-tetraazatricyclo[15.3.1.1^2,6]docosa-1(20),2(22),3,5,17(21),18-hexaene-11,16-dione], the 50% inhibitory concentration (IC50) at Human HSP90 alpha (setting [1]) is 3 µM; in the experiment on HCT116 cells it was 0.4 µM.
For the compound `COCCN1CCSc2cc(nc(N)n2)-c2cc(c(C)cc2C)C(=O)NCCCC1=O` [Compound 80, 4-amino-10-(2-methoxyethyl)-18,20-dimethyl-7-thia-3,5,10,15-tetraazatricyclo[15.3.1.1^2,6]docosa-1(20),2(22),3,5,17(21),18-hexaene-11,16-dione], the half-maximal inhibitory concentration (IC50) at Human HSP90 alpha (setting [1]) stood at 2.5 µM; with HCT116 cells it was 0.2 µM.
On the same counts, the results for `Cc1cc(C)c2cc1C(=O)NCCCC(=O)N(CCN1CCOCC1)CCSc1cc-2nc(N)n1` [Compound 81, 4-amino-10-(2-morpholin-4-ylethyl)-18,20-dimethyl-7-thia-3,5,10,15-tetraazatricyclo[15.3.1.1^2,6]docosa-1(20),2(22),3,5,17(21),18-hexaene-11,16-dione] are 3 µM and 1.1 µM.
On the same counts, the results for `Cc1cc(C)c2cc1C(=O)NCCCC(=O)N(C)CCSc1cc-2nc(N)n1` [Compound 82, 4-amino-10,18,20-trimethyl-7-thia-3,5,10,15-tetraazatricyclo[15.3.1.1^2,6]docosa-1(20),2(22),3,5,17(21),18-hexaene-11,16-dione] are 2.5 µM and 0.2 µM.
On the same counts, the results for `Cc1cc(C)c2cc1C1=N[C@@H](CCNC(=O)CCSc3cc-2nc(N)n3)CO1` [Compound 83, (S)-4-amino-19,21-dimethyl-10-oxo-7-thia-16-oxa-3,5,11,24-tetraazatetracyclo[16.3.1.1^2,6.1^7,10]tetracosa-1(22),2(23),3,5,17(24),19,21-heptaen-10-one] are 2.8 µM and 0.4 µM.

As a reminder, the IC50 is the midpoint of a concentration-inhibition curve.
